The values that follow are results of earlier work, collected in patent US20110245202A1, “PHARMACEUTICAL COMPOSITION FOR THE TREATMENT OF RHINITIS” (priority 2003, published 2011).

The conditions of the series: fraction of the action of naturally occurring (1R,2S)-ephedrine.

In the case of `CN[C@H](C)[C@@H](O)c1ccccc1` [(1S,2R)-ephedrine], the “pharmacological action relative to the natural form (−)-ephedrine” value is reported as “approximately one third”.
